ChEMBL document CHEMBL4346705, “(±)-trans-Dihydronarciclasine and (±)-trans-dihydrolycoricidine analogues modified in their ring A: Evaluation of their anticancer activity and a SAR study” (2019)

Columns and labels:
Format in all cases: functional
HL-60(TB) = assay: Cytotoxicity against human HL-60(TB) cells assessed as growth inhibition after 48 hrs by sulforhodamine B assay; conditions: HL-60, 48 h
MOLT-4 = assay: Cytotoxicity against human MOLT4 cells assessed as growth inhibition after 48 hrs by sulforhodamine B assay; conditions: MOLT-4, 48 h; for CC50: read-out: LC50 (the source's name)
SR = assay: Cytotoxicity against human SR cells assessed as growth inhibition after 48 hrs by sulforhodamine B assay; conditions: for CC50: read-out: LC50 (the source's name)
A549 = assay: Cytotoxicity against human A549 cells assessed as growth inhibition after 48 hrs by sulforhodamine B assay; conditions: A549, 48 h; for CC50: read-out: LC50 (the source's name)
NCI-H226 = assay: Cytotoxicity against human NCI-H226 cells assessed as growth inhibition after 48 hrs by sulforhodamine B assay; conditions: NCI-H226, 48 h
NCI-H23 = assay: Cytotoxicity against human NCI-H23 cells assessed as growth inhibition after 48 hrs by sulforhodamine B assay; conditions: NCI-H23, 48 h; for CC50: read-out: LC50 (the source's name)
NCI-H322M = assay: Cytotoxicity against human NCI-H322M cells assessed as growth inhibition after 48 hrs by sulforhodamine B assay; conditions: for CC50: read-out: LC50 (the source's name)
NCI-H460 = assay: Cytotoxicity against human NCI-H460 cells assessed as growth inhibition after 48 hrs by sulforhodamine B assay; conditions: NCI-H460, 48 h
NCI-H522 = assay: Cytotoxicity against human NCI-H522 cells assessed as growth inhibition after 48 hrs by sulforhodamine B assay; conditions: NCI-H522, 48 h
HCC 2998 = assay: Cytotoxicity against human HCC2998 cells assessed as growth inhibition after 48 hrs by sulforhodamine B assay; conditions: HCC 2998, 48 h
HCT-116 = assay: Cytotoxicity against human HCT116 cells assessed as growth inhibition after 48 hrs by sulforhodamine B assay; conditions: HCT-116, 48 h
HT-29 = assay: Cytotoxicity against human HT-29 cells assessed as growth inhibition after 48 hrs by sulforhodamine B assay; conditions: HT-29, 48 h
SF-268 = assay: Cytotoxicity against human SF268 cells assessed as growth inhibition after 48 hrs by sulforhodamine B assay; conditions: SF-268, 48 h
U-251 = assay: Cytotoxicity against human U251 cells assessed as growth inhibition after 48 hrs by sulforhodamine B assay; conditions: U-251, 48 h
LOX IMVI = assay: Cytotoxicity against human LOXIMVI cells assessed as growth inhibition after 48 hrs by sulforhodamine B assay
MDA-MB-435 = assay: Cytotoxicity against human MDA-MB-435 cells assessed as growth inhibition after 48 hrs by sulforhodamine B assay; conditions: MDA-MB-435, 48 h
SK-MEL-2 = assay: Cytotoxicity against human SK-MEL-2 cells assessed as growth inhibition after 48 hrs by sulforhodamine B assay; conditions: SK-MEL-2, 48 h
SK-MEL-5 = assay: Cytotoxicity against human SK-MEL-5 cells assessed as growth inhibition after 48 hrs by sulforhodamine B assay; conditions: SK-MEL-5, 48 h; for CC50: read-out: LC50 (the source's name)
UACC-62 = assay: Cytotoxicity against human UACC62 cells assessed as growth inhibition after 48 hrs by sulforhodamine B assay; conditions: UACC-62, 48 h
IGROV-1 = assay: Cytotoxicity against human IGROV1 cells assessed as growth inhibition after 48 hrs by sulforhodamine B assay; conditions: IGROV-1, 48 h
OVCAR-3 = assay: Cytotoxicity against human OVCAR3 cells assessed as growth inhibition after 48 hrs by sulforhodamine B assay; conditions: OVCAR-3, 48 h
OVCAR-4 = assay: Cytotoxicity against human OVCAR4 cells assessed as growth inhibition after 48 hrs by sulforhodamine B assay; conditions: OVCAR-4, 48 h
OVCAR-8 = assay: Cytotoxicity against human OVCAR8 cells assessed as growth inhibition after 48 hrs by sulforhodamine B assay; conditions: OVCAR-8, 48 h
CAKI-1 = assay: Cytotoxicity against human Caki1 cells assessed as growth inhibition after 48 hrs by sulforhodamine B assay; conditions: CAKI-1, 48 h; for CC50: read-out: LC50 (the source's name)
RXF 393 = assay: Cytotoxicity against human RXF393 cells assessed as growth inhibition after 48 hrs by sulforhodamine B assay; conditions: RXF 393, 48 h
TK-10 = assay: Cytotoxicity against human TK10 cells assessed as growth inhibition after 48 hrs by sulforhodamine B assay; conditions: TK-10, 48 h
DU-145 = assay: Cytotoxicity against human DU145 cells assessed as growth inhibition after 48 hrs by sulforhodamine B assay; conditions: DU-145, 48 h
MCF7 = assay: Cytotoxicity against human MCF7 cells assessed as growth inhibition after 48 hrs by sulforhodamine B assay; conditions: MCF7, 48 h
Hs-578T = assay: Cytotoxicity against human Hs 578T cells assessed as growth inhibition after 48 hrs by sulforhodamine B assay
BT-549 = assay: Cytotoxicity against human BT549 cells assessed as growth inhibition after 48 hrs by sulforhodamine B assay; conditions: BT-549, 48 h
T47D = assay: Cytotoxicity against human T47D cells assessed as growth inhibition after 48 hrs by sulforhodamine B assay
MDA-MB-468 = assay: Cytotoxicity against human MDA-MB-468 cells assessed as growth inhibition after 48 hrs by sulforhodamine B assay; conditions: MDA-MB-468, 48 h; for CC50: read-out: LC50 (the source's name)

SMILES: O=C1NC2C(CC(O)C(O)C2O)c2cc3c(c(O)c21)OCO3 (racemic)
- GI50 (HL-60(TB)): 0.0601 µM
- TGI (HL-60(TB)): 0.26 µM
- GI50 (MOLT-4): 0.0636 µM
- CC50 (MOLT-4): > 100 µM
- GI50 (SR): 0.0522 µM
- TGI (SR): > 100 µM
- CC50 (SR): > 100 µM
- GI50 (A549): 0.139 µM
- TGI (A549): 1.16 µM
- CC50 (A549): > 100 µM
- GI50 (NCI-H226): 0.0617 µM
- TGI (NCI-H226): 0.59 µM
- GI50 (NCI-H23): 0.0744 µM
- TGI (NCI-H23): 0.52 µM
- CC50 (NCI-H23): > 100 µM
- GI50 (NCI-H322M): 0.0496 µM
- TGI (NCI-H322M): 0.48 µM
- CC50 (NCI-H322M): > 100 µM
- GI50 (NCI-H460): 0.0433 µM
- TGI (NCI-H460): 0.49 µM
- GI50 (NCI-H522): 0.0467 µM
- TGI (NCI-H522): 0.31 µM
- GI50 (HCC 2998): 0.0572 µM
- TGI (HCC 2998): 0.33 µM
- GI50 (HCT-116): 0.0404 µM
- TGI (HCT-116): 1.13 µM
- GI50 (HT-29): 0.0896 µM
- TGI (HT-29): 1 µM
- GI50 (SF-268): 0.127 µM
- TGI (SF-268): 0.8 µM
- GI50 (U-251): 0.0452 µM
- TGI (U-251): 1.01 µM
- GI50 (LOX IMVI): 0.0336 µM
- TGI (LOX IMVI): 0.17 µM
- GI50 (MDA-MB-435): 0.0681 µM
- TGI (MDA-MB-435): 0.51 µM
- GI50 (SK-MEL-2): 0.0561 µM
- TGI (SK-MEL-2): 0.25 µM
- GI50 (SK-MEL-5): 0.0719 µM
- TGI (SK-MEL-5): 0.36 µM
- CC50 (SK-MEL-5): 2.22 µM
- GI50 (UACC-62): 0.136 µM
- TGI (UACC-62): 0.63 µM
- GI50 (IGROV-1): 0.163 µM
- TGI (IGROV-1): 1.11 µM
- GI50 (OVCAR-3): 0.0933 µM
- TGI (OVCAR-3): 0.48 µM
- GI50 (OVCAR-4): 0.0556 µM
- TGI (OVCAR-4): 0.48 µM
- GI50 (OVCAR-8): 0.0576 µM
- TGI (OVCAR-8): 1.06 µM
- GI50 (CAKI-1): 0.0913 µM
- TGI (CAKI-1): 0.69 µM
- CC50 (CAKI-1): > 100 µM
- GI50 (RXF 393): 0.118 µM
- TGI (RXF 393): 0.51 µM
- GI50 (TK-10): 0.221 µM
- TGI (TK-10): 1.68 µM
- GI50 (DU-145): 0.0567 µM
- TGI (DU-145): 0.62 µM
- GI50 (MCF7): 0.0363 µM
- TGI (MCF7): 1.23 µM
- GI50 (Hs-578T): 0.0761 µM
- TGI (Hs-578T): 0.51 µM
- GI50 (BT-549): 0.178 µM
- TGI (BT-549): 0.82 µM
- GI50 (T47D): 0.0529 µM
- TGI (T47D): 0.67 µM
- GI50 (MDA-MB-468): 0.032 µM
- TGI (MDA-MB-468): 0.19 µM
- CC50 (MDA-MB-468): 6.59 µM

SMILES: O=C1NC2C(CC(O)C(O)C2O)c2cc3c(c(O)c21)OCCO3 (racemic)
- GI50 (HL-60(TB)): 0.166 µM
- LC50 (HL-60(TB)): > 100 µM
- TGI (HL-60(TB)): 0.59 µM
- GI50 (MOLT-4): 0.179 µM
- TGI (MOLT-4): 10.1 µM
- CC50 (MOLT-4): > 100 µM
- GI50 (SR): 0.314 µM
- TGI (SR): 36.8 µM
- CC50 (SR): > 100 µM
- GI50 (A549): 0.355 µM
- TGI (A549): 8.53 µM
- CC50 (A549): > 100 µM
- GI50 (NCI-H226): 0.22 µM
- LC50 (NCI-H226): 79.8 µM
- TGI (NCI-H226): 0.73 µM
- GI50 (NCI-H23): 0.214 µM
- TGI (NCI-H23): 0.87 µM
- CC50 (NCI-H23): > 100 µM
- GI50 (NCI-H322M): 0.105 µM
- TGI (NCI-H322M): 0.62 µM
- CC50 (NCI-H322M): > 100 µM
- GI50 (NCI-H460): 0.154 µM
- LC50 (NCI-H460): > 100 µM
- TGI (NCI-H460): 1.05 µM
- GI50 (NCI-H522): 0.147 µM
- LC50 (NCI-H522): 7.62 µM
- TGI (NCI-H522): 0.73 µM
- GI50 (HCC 2998): 0.222 µM
- LC50 (concentration killing 50% of cells) (HCC 2998): 6.31 µM
- TGI (HCC 2998): 0.73 µM
- GI50 (HCT-116): 0.0777 µM
- LC50 (HCT-116): > 100 µM
- TGI (HCT-116): 1.31 µM
- GI50 (HT-29): 0.299 µM
- LC50 (concentration causing 50% net cell kill) (HT-29): 96.4 µM
- TGI (HT-29): 1.33 µM
- GI50 (SF-268): 0.26 µM
- LC50 (SF-268): > 100 µM
- TGI (SF-268): 1.22 µM
- GI50 (U-251): 0.243 µM
- LC50 (U-251): > 100 µM
- TGI (U-251): 14.5 µM
- GI50 (LOX IMVI): 0.18 µM
- LC50 (concentration killing 50% of cells) (LOX IMVI): 3.58 µM
- TGI (LOX IMVI): 0.53 µM
- GI50 (MDA-MB-435): 0.265 µM
- LC50 (concentration killing 50% of cells) (MDA-MB-435): 13.3 µM
- TGI (MDA-MB-435): 1.17 µM
- GI50 (SK-MEL-2): 0.245 µM
- TGI (SK-MEL-2): 0.93 µM
- GI50 (SK-MEL-5): 0.181 µM
- TGI (SK-MEL-5): 0.47 µM
- CC50 (SK-MEL-5): 2.22 µM
- GI50 (UACC-62): 0.261 µM
- LC50 (UACC-62): 13 µM
- TGI (UACC-62): 1.38 µM
- GI50 (IGROV-1): 0.343 µM
- LC50 (IGROV-1): > 100 µM
- TGI (IGROV-1): 2.68 µM
- GI50 (OVCAR-3): 0.28 µM
- LC50 (OVCAR-3): > 100 µM
- TGI (OVCAR-3): 0.96 µM
- GI50 (OVCAR-4): 0.209 µM
- LC50 (concentration causing 50% net cell kill) (OVCAR-4): > 100 µM
- TGI (OVCAR-4): 0.82 µM
- GI50 (OVCAR-8): 0.311 µM
- LC50 (OVCAR-8): > 100 µM
- TGI (OVCAR-8): 5.89 µM
- GI50 (CAKI-1): 0.586 µM
- TGI (CAKI-1): 5.47 µM
- CC50 (CAKI-1): > 100 µM
- GI50 (RXF 393): 0.179 µM
- LC50 (50% lethal concentration) (RXF 393): 6.3 µM
- TGI (RXF 393): 0.71 µM
- GI50 (TK-10): 0.563 µM
- LC50 (TK-10): > 100 µM
- TGI (TK-10): 3.87 µM
- GI50 (DU-145): 0.239 µM
- LC50 (DU-145): > 100 µM
- TGI (DU-145): 0.86 µM
- GI50 (MCF7): 0.103 µM
- LC50 (MCF7): > 100 µM
- TGI (MCF7): 0.59 µM
- GI50 (Hs-578T): 0.256 µM
- LC50 (concentration killing 50% of cells) (Hs-578T): > 100 µM
- TGI (Hs-578T): 0.94 µM
- GI50 (BT-549): 0.26 µM
- LC50 (concentration killing 50% of cells) (BT-549): > 100 µM
- TGI (BT-549): 0.87 µM
- GI50 (T47D): 0.143 µM
- LC50 (concentration killing 50% of cells) (T47D): > 100 µM
- TGI (T47D): 0.9 µM
- GI50 (MDA-MB-468): 0.0681 µM
- TGI (MDA-MB-468): 0.36 µM
- CC50 (MDA-MB-468): 2.78 µM
